Consider 35 molecules from patent US9464048B2, “5-oxo-ETE receptor antagonist compounds” (THE ROYAL INSTITUTION FOR THE ADVANCEMENT OF …, priority 2009, dated 2016).

Bounds are passed on as bounds.

For one assay, the target named is OXE receptor (Homo sapiens, UniProt Q8TDS5). Kind of assay: 5-oxo-ETE-induced calcium mobilization in human granulocytes. The class given is cell-based. Set-up: Human granulocytes 95% neutrophils) are prepared from whole blood; endogenous in cells; host or cells: human blood granulocytes (>=95% neutrophils). The following applies: 5-oxo-ETE 10 nM; human granulocytes; Table 2; read-out: IC50 (μM) Ca^++. The procedure: Primary Screening for Antagonist Activity: Calcium Mobilization in Human Granulocytes
Sequence of OXE receptor (Q8TDS5 whole entry): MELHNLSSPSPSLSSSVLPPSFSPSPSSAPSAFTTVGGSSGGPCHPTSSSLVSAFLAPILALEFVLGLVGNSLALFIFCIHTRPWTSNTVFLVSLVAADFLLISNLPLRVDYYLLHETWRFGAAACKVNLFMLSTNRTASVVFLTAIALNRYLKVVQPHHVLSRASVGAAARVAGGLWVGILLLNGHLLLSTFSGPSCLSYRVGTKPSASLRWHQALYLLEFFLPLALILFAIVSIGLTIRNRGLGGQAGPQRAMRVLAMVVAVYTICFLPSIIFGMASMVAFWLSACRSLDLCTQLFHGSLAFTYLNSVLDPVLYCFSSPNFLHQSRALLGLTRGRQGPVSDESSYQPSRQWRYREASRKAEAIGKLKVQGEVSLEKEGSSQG
Human granulocytes 95% neutrophils) are prepared from whole blood using Dextran 500 to remove red blood cells, followed by centrifugation over Ficoll-Paque to remove mononuclear cells and hypotonic lysis of any remaining red blood cells. After centrifugation the granulocytes are suspended in Ca^++/Mg^++-free phosphate-buffered saline (PBS). Granulocytes (10^7 cells/nil) are incubated with the acetoxymethyl ester of indo-1 ([…]) for 30 min, followed by washing twice with PBS^− and resuspension in the same medium to obtain a final cell concentration of 3.22×10^6 cells/ml. Five minutes prior to commencing data acquisition, Ca^++ and Mg^++ are added to give final concentrations of 1.8 and 1 mM, respectively. Calcium measurements are performed at 37° C. using a spectrofluorometer equipped with a temperature-controlled cuvette holder and a magnetic stirrer. The excitation and emission wavelengths are 331 nm and 410 nm, respectively. Following stabilization of the baseline, fluorescence is measured for 1 min, prior to the addition of either vehicle or various concentrations of a potential 5-oxo-ETE antagonist. Two min later, 5-oxo-ETE (10 nM) is added, followed 1 min later by digitonin (final concentration 0.1%). Data acquisition is terminated after a further 0.5 min. In some cases LTB4 (10 nM) is added 2 min after 5-oxo-ETE, followed 0.5 min later by addition of digitonin. Fmax is determined from fluorescence measurements after the addition of digitonin, whereas Fmin is determined after determination of autofluorescence as described in the literature (Gelfand et al, J. Biol. Chem. 261:11520 (1986)). A dissociation constant of 250 nM for the indo-1/Ca^++ complex is used to calculate [Ca^++]i. […] Measurement of Actin Polymerization in Eosinophils
On the technique in general: A change in cytosolic calcium serves as a functional read-out for many receptors and channels.
A word on the IC50: it is the concentration at which inhibition is half-maximal. `CC(C)CCCCc1c(C(=O)CC(C)CC(=O)O)c2ccc(Cl)cc2n1C` (racemic) [Compound 109, 5-[6-Chloro-1-methyl-2-(5-methyl-hexyl)-1H-indol-3-yl]-3-methyl-5-oxo-pentanoic acid]: the half-maximal inhibitory concentration (IC50) came out at 0.175 µM.
As for `CCCCCCCc1c(C(=O)CC(C)CC(=O)O)c2cc(Cl)ccc2n1C` (racemic) [Compound 113, 5-(5-Chloro-2-heptyl-1-methyl-1H-indol-3-yl)-3-methyl-5-oxo-pentanoic acid], the IC50 amounted to 0.035 µM.
On the same count and under the same terms, then `CC(C)CCCCc1cc2cc(Cl)ccc2n1C(=O)CC(C)CC(=O)O` (racemic) [Compound 115, 5-[5-Chloro-2-(5-methyl-hexyl)-indol-1-yl]-3-methyl-5-oxo-pentanoic acid], with 2 µM.
For `CCCCCCc1c(C(=O)CC(C)CC(=O)O)c2cc(Cl)ccc2n1C` (stereo in doubt) [Compound 107, 5-(5-Chloro-2-hexyl-1-methyl-1H-indol-3-yl)-3-(R)-methyl-5-oxo-pentanoic acid], the IC50 was determined as 0.009 µM.
Same read-out and setting: then `CCCCCCc1cc2ccccc2n1C(=O)CCCC(=O)O` [Compound 1, 5-(2-Hexyl-indol-1-yl)-5-oxo-pentanoic acid], with 1 µM; and `CCCCCCc1c(C(=O)CCCC(=O)O)c2ccccc2n1C` [Compound 5, 5-(2-Hexyl-1-methyl-1H-indol-3-yl)-5-oxo-pentanoic acid], with 2.5 µM; and `CCCCCCc1c(C(=O)CC(C)CC(=O)O)c2ccccc2n1C` (stereo not drawn) [Compound 6, 5-(2-Hexyl-1-methyl-1H-indol-3-yl)-3-methyl-5-oxo-pentanoic acid], with 0.34 µM.
On the same count and under the same terms, then `CCCCCCc1c(C(=O)C[C@@H](C)CC(=O)O)c2cc(Cl)ccc2n1C` [Compound 100, 5-(5-chloro-2-hexyl-1-methyl-1H-indol-3-yl)-3-(R)-methyl-5-oxopentanoic acid], with 0.125 µM; and `CCCCCCc1c(C(=O)CC(C)CC(=O)O)c2cc(Cl)ccc2n1CC` (stereo not drawn) [Compound 101, 5-(5-Chloro-1-ethyl-2-hexyl-1H-indol-3-yl)-3-methyl-5-oxo-pentanoic acid], with 0.35 µM.
On the same count and under the same terms, then `CCCCCCc1c(C(=O)CC(C)CC(=O)O)c2ccccc2n1CC` (stereo not drawn) [Compound 102, 5-(1-Ethyl-2-hexyl-1H-indol-3-yl)-3-methyl-5-oxo-pentanoic acid], with 1.6 µM.
As to `CCCCCCc1c(C(=O)CC(C)CC(=O)O)c2ccc(Cl)cc2n1C` (stereo not drawn) [Compound 104, 5-(6-Chloro-2-hexyl-1-methyl-1H-indol-3-yl)-3-methyl-5-oxo-pentanoic acid], the half-maximal inhibitory concentration (IC50) is 0.119 µM.

Still in this assay, the particulars now being: Table 3; position of hexyl/hexenyl on the scaffold; readout not given, values match Ca^++; read-out: IC50.
Take `CCCCCCc1cc2ccccc2n1C(=O)CCCC(=O)O` [Compound 1, 5-(2-Hexyl-indol-1-yl)-5-oxo-pentanoic acid]: the IC50 amounted to 1 µM.
The same measure, in the same setting: then `CCCCCCc1cn(C(=O)CCCC(=O)O)c2ccccc12` [Compound 7, 5-(3-Hexyl-indol-1-yl)-5-oxo-pentanoic acid], with above 30 µM; and `CCCCCCc1cccc2ccn(C(=O)CCCC(=O)O)c12` [Compound 27, 5-(7-Hexyl-indol-1-yl)-5-oxo-pentanoic acid], with above 30 µM.
Same read-out and setting: then `CCCC/C=C/c1ccc2c(ccn2C(=O)CCCC(=O)O)c1` [Compound 28, 5-(5-hex-1-enyl-indol-1-yl)-5-oxo-pentanoic acid], with 6.5 µM; and `CCCCCCc1ccc2c(ccn2C(=O)CCCC(=O)O)c1` [Compound 30, 5-(5-Hexyl-indol-1-yl)-5-oxo-pentanoic acid], with above 30 µM.
The same measure, in the same setting: then `CCCCCCc1ccc2ccn(C(=O)CCCC(=O)O)c2c1` [Compound 31, 5-(6-Hexyl-indol-1-yl)-5-oxo-pentanoic acid], with above 10 µM; and `CCCC/C=C/c1cccc2ccn(C(=O)CCCC(=O)O)c12` [Compound 32, 5-(7-Hex-1-enyl-indol-1-yl)-5-oxo-pentanoic acid], with above 10 µM.

The same assay, now with this note: Table 4; R1/R2/R3 variation; readout not given; read-out: IC50.
`CCCCCCc1c(C(=O)CCCC(=O)O)c2ccccc2n1C` [Compound 5, 5-(2-Hexyl-1-methyl-1H-indol-3-yl)-5-oxo-pentanoic acid]: the half-maximal inhibitory concentration (IC50) is 3.7 µM.
Still for that read-out and setting: then `CCCCCCn1cc(C(=O)CCCC(=O)O)c2ccccc21` [Compound 8, 5-(1-Hexyl-1H-indol-3-yl)-5-oxo-pentanoic acid], with above 30 µM; and `CCCCCCc1[nH]c2ccccc2c1C(=O)CCCC(=O)O` [Compound 10, 5-(2-Hexyl-1H-indol-3-yl)-5-oxo-pentanoic acid], with 11 µM; and `CCCCCCc1c(C(=O)CCCC(=O)O)n(C)c2ccccc12` [Compound 11, 5-(3-Hexyl-1-methyl-1H-indol-2-yl)-5-oxo-pentanoic acid], with above 30 µM.

Staying with this assay, now noted: Table 5; alkyl chain variation; readout not given, values match Ca^++; read-out: IC50.
For `CCCCCCc1cc2ccccc2n1C(=O)CCCC(=O)O` [Compound 1, 5-(2-Hexyl-indol-1-yl)-5-oxo-pentanoic acid], the concentration for half-maximal inhibition (IC50) was 1 µM.
On to `CCCC/C=C/c1cc2ccccc2n1C(=O)CCCC(=O)O` [Compound 12, 5-(2-Hex-1-enyl-indol-1-yl)-5-oxo-pentanoic acid], for which the half-inhibitory concentration (IC50) worked out at 3.3 µM.
Same read-out and setting: then `CCCCCc1cc2ccccc2n1C(=O)CCCC(=O)O` [Compound 18, 5-Oxo-5-(2-pentyl-indol-1-yl)-pentanoic acid], with 1.1 µM.
Take `CCCCCCCCC/C=C\c1cc2ccccc2n1C(=O)CCCC(=O)O` [Compound 20, 5-Oxo-5-(2-undec-1-enyl-indol-1-yl)-pentanoic acid]: the half-maximal inhibitory concentration (IC50) amounted to 20 µM.
On the same count and under the same terms, then `CCCCCCCCCCCc1cc2ccccc2n1C(=O)CCCC(=O)O` [Compound 23, 5-Oxo-5-(2-undecyl-indol-1-yl)-pentanoic acid], with 25 µM; and `CCCCCCCCc1cc2ccccc2n1C(=O)CCCC(=O)O` [Compound 25, 5-(2-Octyl-indol-1-yl)-5-oxo-pentanoic acid], with 2.7 µM; and `CCCCc1cc2ccccc2n1C(=O)CCCC(=O)O` [Compound 26, 5-(2-Butyl-indol-1-yl)-5-oxo-pentanoic acid], with above 30 µM.
Same read-out and setting: then `CCCCCCc1cc2cc(Cl)ccc2n1C(=O)CCCC(=O)O` [Compound 29, 5-(5-Chloro-2-hexyl-indol-1-yl)-5-oxo-pentanoic acid], with 1.4 µM; and `CCCCCCCc1cc2ccccc2n1C(=O)CCCC(=O)O` [Compound 33, 5-(2-Heptyl-indol-1-yl)-5-oxo-pentanoic acid], with 1.5 µM.

The assay is the same for the next values; noted with them: Table 6; carboxyl side chain variation; readout not given, values match Ca^++; read-out: IC50.
Turning to `CCCCCCc1cc2ccccc2n1C(=O)CCCC(=O)O` [Compound 1, 5-(2-Hexyl-indol-1-yl)-5-oxo-pentanoic acid], the IC50 came out at 1 µM.
With `CCCCCCc1cc2ccccc2n1C(=O)C[C@@H](C)CC(=O)O` [Compound 3, 5-(2-Hexyl-indol-1-yl)-3(R)-methyl-5-oxo-pentanoic acid], the concentration for half-maximal inhibition (IC50) worked out at 0.8 µM.
On the same count and under the same terms, then `CCCCCCc1cc2ccccc2n1C(=O)CCC(=O)O` [Compound 14, 4-(2-Hexyl-indol-1-yl)-4-oxo-butyric acid], with above 10 µM.
The same measure, in the same setting: then `CCCCCCc1cc2ccccc2n1CCCC(=O)O` [Compound 16, 4-(2-Hexyl-indol-1-yl)-butyric acid], with 4.5 µM.
`CCCCCCc1cc2ccccc2n1C(=O)CC(C)(C)CC(=O)O` [Compound 21, 5-(2-Hexyl-indol-1-yl)-3,3-dimethyl-5-oxo-pentanoic acid]: the IC50 stood at 13 µM.

Still in this assay, the particulars now being: Table 7; alkyl variation; readout not given, values match Ca^++; read-out: IC50.
As to `CCCC/C=C/c1ccc2c(ccn2C(=O)CC(C)CC(=O)O)c1` (stereo not drawn) [Compound 17, 5-(5-Hex-1-enyl-indol-1-yl)-3-methyl-5-oxo-pentanoic acid], the IC50 was determined as 10 µM.
Same read-out and setting: then `CCCCCc1cc2ccccc2n1C(=O)CC(C)CC(=O)O` (stereo not drawn) [Compound 19, 3-Methyl-5-oxo-5-(2-pentyl-indol-1-yl)-pentanoic acid], with 0.1 µM.
Same read-out and setting: then `CCCCCCCc1cc2ccccc2n1C(=O)CC(C)CC(=O)O` (stereo not drawn) [Compound 34, 5-(2-Heptyl-indol-1-yl)-3-methyl-5-oxo-pentanoic acid], with 0.12 µM.
